{
  "source": "patent US5262520A",
  "about": "“Peptides and antibodies that inhibit integrin-ligand binding” (The Scripps Research Institute, priority 1990, dated 1993)",
  "key": {"[1]": {"molecular_target": "T1, ^125 I-fibrinogen with immobilized p1 peptide (Homo sapiens, UniProt P08514)", "T1 construct": "for GPIIb from residue 296; made in house; no expression host", "assay": "Inhibition of 125I-fibrinogen binding to immobilized p1 peptide", "conditions": "for inhibition of fibrinogen binding to immobilized p1 (in words): text summary of Table 7", "method": "Polypeptides p1, p1', and controls were immobilized on 96-well Immulon-2 microtiter plates (Dynatech Laboratories, VA). The peptides were added to the plates and maintained at 4 C for 24 hours after which the plates were washed with Hepes-Tyrode's buffer (pH 7.4) containing Tween-20. The plates were post-coated with 3% BSA for 1 hr. at 37° C. and then washed again. ^125 I-fibrinogen (50 μL at 50 nM) was allowed to bind to the peptide-coated wells for 24 hours at 22° C. which were then extensively washed and counted for bound radioactivity.\nCation dependence of binding was established in the presence of EDTA (5 mM). Two gamma-chain peptides of fibrinogen (HHLGGAKQAGDV and KYGGHHLGGAHQAGDV) inhibited the interaction of fibrinogen with immobilized pl. […] These observations are consistent with the hypothesis that RGD gamma-chain peptides interact with the same sites in GPIIb-IIIa."}, "GPIIb": {"molecular_target": "T2, GPIIb (Homo sapiens, UniProt P08514)", "T2 construct": "endogenous in cells; host or cells: washed human platelets from fresh blood", "assay": "Chemical crosslinking of 125I-K16 to GPIIb on platelets", "type": "binding", "excerpt": "Platelets were isolated from fresh human blood collected into acid/citrate/dextrose by differential centrifugation followed by gel filtration on Sepharose 2B in divalent ion-free Tyrode's buffer, pH 7.3, containing 0.1% bovine serum albumin. See, Marguerie et al., J. Biol. Chem., 225:154-161 (1980).\nPlatelet binding of K16 followed the protocols previously described for measuring platelet interactions with adhesive proteins and with this and other peptides. See, Ginsberg et al., J. Biol. Chem., 260:3931-3936 (1985); Lam et al., Fed. Proc. Fed. Am. Soc. Exp. Biol., 44:1126 (1985); and Marguerie et al., supra. Briefly, platelets were suspended at 4×10^8 /ml in divalent ion-free Tyrode's albumin buffer. Unless otherwise specified, Ca^2+ was added to a final concentration of 1 mM. The platelet stimulus used was 0.5 unit/ml alpha-thrombin. In assays in which fibrinogen and thrombin were present, 30 nM D-phenylalanyl-L-prolyl-arginine ketone (Calbiochem, La Jolla, Ca.) was added to the platelet suspension 5 minutes after addition of thrombin and 5 minutes before addition of fibrinogen. The radiolabeled peptide was then added to […] stimulated or nonstimulated platelets at a concentration of 30 μM, and binding proceeded for 45 min at 22° C. The selected cross-linking agent was then added. The cross-linking agent used in this study, bis(sulfosuccinimidyl) suberate (BS^3), purchased from Pierce Chemical Co. was dissolved in PBS immediately prior to use and admixed with the platelets to a final concentration of 0.2 mM. The cross-linking reactions were terminated after 10 min at 22° C. by addition of 10 mM Tris, pH 7.0.\nThe cell-bound ligand was recovered by centrifugation through 20% sucrose, and the cells were extracted in PBS containing 1% Nonidet P40 and 10 mM N-ethylmaleimide (Sigma). Extrated proteins were precipitated with 10% trichloroacetic acid, and the pellet obtained after centriguation was washed three times with cold 85% ethanol. The cross-linked samples were analyzed by electrophoresis (SDS-PAGE) on polyacrylamide vertical slab gels in the buffer system of Laemmli, Nature, 227 […] (1970). For disulfide bond reduction, the samples were treated with 5% 2-mercaptoethanol. Gels were dried and autoradiograms were developed with Kodak X-Omat AR films. Molecular weights were estimated on the basis of electrophoretic mobility relative to standards obtained from Diversified Biotech (MA).\nCross-linked samples were immunoprecipitated using a monoclonal antibody designated PMI-1, which recognizes the heavy chain of GPIIb. Loftus et al., Proc. Natl. Acad. Sci. USA. 84:7114 (1987). […]"}, "[2]": {"conditions": "GPIIb:K16 complex, gel under reducing conditions, excised and counted"}},
  "note": "Where no end group is shown, it is not given here.",
  "data": [
    {"compound": "O=C(O)CN(CCN(CC(=O)O)CC(=O)O)CC(=O)O", "note": "[EDTA]", "values": [
      {"measurement": "% Inhibition of ^125 I-fibrinogen binding to p1", "setting": "[1]; inhibitor 5000 μM", "result": "90 ± 8", "unit": "%"}
    ]},
    {"compound": "GRGESP [GRGESP]", "values": [
      {"measurement": "inhibition at 200 µM", "setting": "[1]; inhibitor 200 μM", "result": "16 ± 7", "unit": "%"}
    ]},
    {"compound": "YVTAGRGDSPASSK [YVTAGRGDSPASSK]", "values": [
      {"measurement": "inhibition at 200 µM", "setting": "[1]; inhibitor 200 μM", "result": "61 ± 16", "unit": "%"}
    ]},
    {"compound": "KYGGHHLGGAKQAGDV [K16, peptide derived from fibrinogen gamma chain]", "values": [
      {"measurement": "% Inhibition of ^125 I-fibrinogen binding to p1", "setting": "[1]; inhibitor 200 μM", "result": "54 ± 12", "unit": "%"},
      {"measurement": "inhibition of fibrinogen binding to immobilized p1 (in words)", "setting": "[1]", "result": "inhibited"},
      {"measurement": "crosslinking of the radiolabeled peptide to the cells", "setting": "GPIIb; 50-fold excess of nonlabeled K16, thrombin-stimulated platelets, FIG. 2A", "result": "abolished the crosslinking"},
      {"measurement": "radioactivity in the position of light chain of GPIIb", "setting": "GPIIb; [2]", "result": "< 2", "unit": "%"},
      {"measurement": "radioactivity in the position of the heavy chain of GPIIb", "setting": "GPIIb; [2]", "result": 98, "unit": "%"},
      {"measurement": "increase of K16 crosslinking to GPIIb", "setting": "GPIIb; thrombin stimulation relative to nonactivated platelets, 4 experiments", "result": 12, "unit": "fold"}
    ]},
    {"compound": "Fibrinogen", "values": [
      {"measurement": "% Inhibition of ^125 I-fibrinogen binding to p1", "setting": "[1]; inhibitor 2 μM", "result": "82 ± 1.2", "unit": "%"}
    ]},
    {"compound": "HHLGGAKQAGDV [HHLGGAKQAGDV]", "values": [
      {"measurement": "inhibition at 200 µM", "setting": "[1]; inhibitor 200 μM", "result": "57 ± 11", "unit": "%"}
    ]},
    {"compound": "N=C(N)NCCC[C@H](N)C(=O)NCC(=O)N[C@@H](CC(=O)O)C(=O)N[C@@H](CO)C(=O)O", "note": "[RGDS]", "values": [
      {"measurement": "inhibition at 200 µM", "setting": "[1]; inhibitor 200 μM", "result": "52 ± 15", "unit": "%"}
    ]},
    {"compound": "Albumin", "values": [
      {"measurement": "% Inhibition of ^125 I-fibrinogen binding to p1", "setting": "[1]; inhibitor 2 μM", "result": "12 ± 4", "unit": "%"},
      {"measurement": "inhibition of fibrinogen binding to immobilized p1 (in words)", "setting": "[1]", "result": "minimal inhibition"}
    ]}
  ]
}
